Experiments:
SpmX (ΔTM) = target: T1, SpmX (ΔTM) (Caulobacter vibrioides, UniProt A0A0H3C9Y4); assay: fluorescence microscopy of condensate dissolution; settings: 5 μM protein, 5% Cy3 labelled; 5 mM MgCl2, 100 mM KCl, pH 7.4, 1 hour; solute effect on phase separation, no binding constant
T1 construct: cytoplasmic portion, AA 1 to 355 of 431, C-terminal TEV-His10 cleaved; E. coli BL21(DE3)

PopZ = target: T2, PopZ (Caulobacter vibrioides, UniProt A0A0H3C7Y4); assay: fluorescence microscopy of condensate dissolution; settings: 5 μM protein, 1% Atto488 labelled; 5 mM MgCl2, 100 mM KCl, pH 7.4, 1 hour; solute effect on phase separation, no binding constant
T2 construct: full length, AA 1 to 177, C-terminal TEV-His6 cleaved; E. coli BL21(DE3)
T2 sequence (A0A0H3C7Y4 entry or part of it): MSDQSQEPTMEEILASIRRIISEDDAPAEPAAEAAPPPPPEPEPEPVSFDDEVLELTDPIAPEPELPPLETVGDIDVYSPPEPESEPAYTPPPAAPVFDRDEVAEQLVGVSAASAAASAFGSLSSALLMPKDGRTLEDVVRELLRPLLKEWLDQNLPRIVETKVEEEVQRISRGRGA

T1 sequence (A0A0H3C9Y4 entry or part of it, stated change not applied): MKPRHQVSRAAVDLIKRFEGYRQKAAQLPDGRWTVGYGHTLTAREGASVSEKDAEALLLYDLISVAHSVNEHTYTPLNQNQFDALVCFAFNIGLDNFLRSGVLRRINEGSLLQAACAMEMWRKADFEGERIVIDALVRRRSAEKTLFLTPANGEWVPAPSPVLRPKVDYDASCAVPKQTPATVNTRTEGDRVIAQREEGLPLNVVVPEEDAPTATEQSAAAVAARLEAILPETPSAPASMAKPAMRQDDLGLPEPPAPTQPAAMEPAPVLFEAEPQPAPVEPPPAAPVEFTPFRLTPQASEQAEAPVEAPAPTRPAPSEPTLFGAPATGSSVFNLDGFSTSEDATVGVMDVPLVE

Structure (SMILES): Nc1ncnc2c1ncn2[C@@H]1O[C@H](COP(=O)(O)OP(=O)(O)OP(=O)(O)O)[C@@H](O)[C@H]1O [ATP]
- dissolution concentration of condensates (SpmX (ΔTM)): 2 mM
- dissolution concentration of condensates (PopZ): 1 mM
